Earlier results as cited in PMC7109127 (British Journal of Cancer, 2020).

What was measured:
HCC [1] = details: first-line HCC; cited from earlier work
[2] = cited from earlier work
[3] = tested on: metastatic renal cell carcinoma; details: TIVO-1; cited from earlier work
[4] = TIVO-1; cited from earlier work
[5] = first-line HCC; cited from earlier work
advanced HCC = tested on: advanced HCC; set-up: method as in PMID 18650514; details: cited from earlier work
HCC [6] = tested on: HCC; set-up: method as in PMID 30665869, PMID 26095784; details: selective VEGFR-2 inhibition; cited from earlier work

COc1cc2nccc(Oc3ccc(NC(=O)NC4CC4)c(Cl)c3)c2cc1C(N)=O [lenvatinib]
ORR (RECIST 1.1) (HCC [1]): 18.8% | patients progression free at 6 months (HCC [1]): 55%

CNC(=O)c1cc(Oc2ccc(NC(=O)Nc3ccc(Cl)c(C(F)(F)F)c3)cc2)ccn1 [sorafenib]
half-life [2]: 25 to 48 h | overall response rate (ORR) [3]: 23.3% | progression-free survival (PFS) [3]: 9.1 months | ORR (RECIST 1.1) (HCC [1]): 6.5% | patients progression free at 6 months (HCC [1]): 35% | diarrhoea incidence [4]: 33% | hypertension incidence [4]: 34% | palmar–plantar erythrodysesthesia incidence [4]: 54% | Fatigue, all grades [5]: 25% | Fatigue, grade 3–4 [5]: 4% | objective responses (advanced HCC): ≤ 2%

ramucirumab
objective responses in HCC (HCC [6]): does not usually lead to objective responses
